Assay results: BindingDB's records for doi:10.1016/S0960-894X(00)80229-2 (1992)

Assay: Agonistic activity at kappa opioid receptor of rabbit vas deferens

SMILES	IC50 [nM]
COc1ccc(CC(=O)N2CCN(C(C)=O)CC2CN2CC[C@H](O)C2)cc1 (stereo partly drawn) [1-[4-Acetyl-2-((S)-3-hydroxy-pyrrolidin-1-ylmethyl)-piperazin-1-yl]-2-(4-methoxy-phenyl)-ethanone]	230
CC(=O)N1CCN(C(=O)Cc2ccc(Cl)c(Cl)c2)C(CN2CC[C@H](O)C2)C1 (stereo partly drawn) [1-[4-Acetyl-2-((S)-3-hydroxy-pyrrolidin-1-ylmethyl)-piperazin-1-yl]-2-(3,4-dichloro-phenyl)-ethanone]	0.22
COC(=O)N1CCN(C(=O)Cc2ccc(Cl)c(Cl)c2)[C@@H](CN2CCCC2)C1 [4-[2-(3,4-Dichloro-phenyl)-acetyl]-3-pyrrolidin-1-ylmethyl-piperazine-1-carboxylic acid methyl ester]	0.02
CC(=O)N1CCN(C(=O)Cc2ccc(C(F)(F)F)cc2)C(CN2CC[C@H](O)C2)C1 (stereo partly drawn) [1-[4-Acetyl-2-((S)-3-hydroxy-pyrrolidin-1-ylmethyl)-piperazin-1-yl]-2-(4-trifluoromethyl-phenyl)-ethanone]	1.5
CC(=O)N1CCN(C(=O)Cc2ccc([N+](=O)[O-])cc2)C(CN2CC[C@H](O)C2)C1 (stereo partly drawn) [1-[4-Acetyl-2-((S)-3-hydroxy-pyrrolidin-1-ylmethyl)-piperazin-1-yl]-2-(4-nitro-phenyl)-ethanone]	6.3
CC(=O)N1CCN(C(=O)Cc2cc(F)cc(F)c2)C(CN2CC[C@H](O)C2)C1 (stereo partly drawn) [1-[4-Acetyl-2-((S)-3-hydroxy-pyrrolidin-1-ylmethyl)-piperazin-1-yl]-2-(3,5-difluoro-phenyl)-ethanone]	4.6
COc1cccc(CC(=O)N2CCN(C(C)=O)CC2CN2CC[C@H](O)C2)c1 (stereo partly drawn) [1-[4-Acetyl-2-((S)-3-hydroxy-pyrrolidin-1-ylmethyl)-piperazin-1-yl]-2-(3-methoxy-phenyl)-ethanone]	49
CC(=O)N1CCN(C(=O)Cc2ccc([S+](C)[O-])cc2)C(CN2CC[C@H](O)C2)C1 (stereo partly drawn) [1-[4-Acetyl-2-((S)-3-hydroxy-pyrrolidin-1-ylmethyl)-piperazin-1-yl]-2-(4-methanesulfinyl-phenyl)-ethanone]	140
CC(=O)N1CCN(C(=O)Cc2ccc(S(C)(=O)=O)cc2)C(CN2CC[C@H](O)C2)C1 (stereo partly drawn) [1-[4-Acetyl-2-((S)-3-hydroxy-pyrrolidin-1-ylmethyl)-piperazin-1-yl]-2-(4-methanesulfonyl-phenyl)-ethanone]	0.9
CSc1ccc(CC(=O)N2CCN(C(C)=O)CC2CN2CC[C@H](O)C2)cc1 (stereo partly drawn) [1-[4-Acetyl-2-((S)-3-hydroxy-pyrrolidin-1-ylmethyl)-piperazin-1-yl]-2-(4-methylsulfanyl-phenyl)-ethanone]	37
CC(=O)N1CCN(C(=O)Cc2ccccc2)C(CN2CC[C@H](O)C2)C1 (stereo partly drawn) [1-[4-Acetyl-2-((S)-3-hydroxy-pyrrolidin-1-ylmethyl)-piperazin-1-yl]-2-phenyl-ethanone]	400
CC(=O)N1CCN(C(=O)Cc2cccc([N+](=O)[O-])c2)C(CN2CC[C@H](O)C2)C1 (stereo partly drawn) [1-[4-Acetyl-2-((S)-3-hydroxy-pyrrolidin-1-ylmethyl)-piperazin-1-yl]-2-(3-nitro-phenyl)-ethanone]	14
